Data as given in US7332473B2, “Peptides and medicinal compositions containing the same” (priority 2002, dated 2008).
Where two headings read alike, the source gives them in different places. Ends that are not written are not given here.

Legend:
PC12 cells = assay type: cell-based, rat
physchem [1] = assay type: physicochemical; conditions: pH 7; for remaining at 240 h, 100 μg/ml / remaining at 480 h, 100 μg/ml / remaining at 720 h, 100 μg/ml: buffer
Experimental: Adequate amounts of peptides 4, 12, 21, and 23 were fractionated via weighing and then dissolved in phosphate buffer (an aqueous solution of 0.001% sodium dihydrogen phosphate) adjusted at the pH level of 7.0 to bring the final concentration to 100 μg/ml. The resulting solutions were allowed to stand in a thermo-hygrostat (LH-20-11, Nagano Kagaku) at 40° C. and 75% RH for 0, 10, 20, and 30 days, and reverse phase HPLC analysis was carried out (wavelength: 220 nm; mobile phase: acetonitrile (29.5%)/trifluoroacetic acid (0.1%); column: ODS-120T (Tosoh); column temperature: 25° C.) to examine the quantities of remaining peptides 4, 12, 21, and 23.

physchem [2] = assay type: physicochemical; conditions: buffer or solvent
Experimental: Adequate amounts of peptides 4, 12, 21, and 23 were fractionated via weighing and then dissolved in distilled water (Otsuka Distilled Water) adjusted at pH levels of 6.0 and 7.0 to bring the final concentration to 10 μg/ml. The resulting solutions were allowed to stand in an incubator at 55° C. (FC-610, Advantec) for 3 days, and reverse phase HPLC analysis was carried out (wavelength: 220 nm; mobile phase: acetonitrile (29.5%)/trifluoroacetic acid (0.1%); column: ODS-120T (Tosoh); column temperature: 25° C.) to examine the quantities of remaining peptides 4, 12, 21, and 23. […] This was particularly apparent at pH 7.0.

physchem [3] = assay type: physicochemical; conditions: for remaining at 168 h, 100 μg/ml: buffer
Experimental: Adequate amounts of peptides 4, 12, 21, and 23 were fractionated via weighing and then dissolved in phosphate buffers (aqueous solution of 0.001% sodium dihydrogen phosphate) adjusted to pH levels of 6.0 and 7.0 to bring the final concentration to 100 μg/ml. The resulting solutions were allowed to stand in a thermo-hygrostat (LH-20-11, Nagano Kagaku) at 40° C. and 75% RH for a week, and reverse phase HPLC analysis was carried out (wavelength: 220 nm; mobile phase: acetonitrile (29.5%)/trifluoroacetic acid (0.1%); column: ODS-120T (Tosoh); column temperature: 25° C.) to examine the quantities of remaining peptides 4, 12, 21, and 23.

PC-12 cells = assay: Effect of inducing neurite formation; assay type: cell-based, rat; conditions: peptides 100 nM, cultured 3 days, compared to control without peptide and peptide 1
Experimental: Effect of peptides 1, 4, 12, 21, and 23 for inducing neurite formation were tested in the manner described below. PC-12 cells were cultured in Dulbecco's modified minimum essential medium (DMEM) containing 5% horse serum and 5% fetal calf serum in the presence of 5% CO2 and 95% air at 37° C. Cells were separated from the culture flask with the aid of trypsin, counted using a cytometer, and then the concentration was adjusted to 1.0×10^4 cells/ml. The cell-containing liquid medium was added to a Biocoat type IV collagen-coated 24-well dish in amounts of 1 ml each and then cultured in the presence of 5% CO2 and 95% air at 37° C. for 24 hours. The medium was replaced 24 hours later, and peptides (100 nM) were added at that time. The resultant was continuously cultured for 3 days and then photographed. […] The scale bar in each photograph represents 100 μm.

physchem [4] = assay type: physicochemical; conditions: pH 7; for remaining at 240 h, 100 μg/ml / remaining at 480 h, 100 μg/ml / remaining at 720 h, 100 μg/ml: buffer or solvent
Experimental: Adequate amounts of peptides 4, 12, 21, and 23 were fractionated via weighing and then dissolved in distilled water (Otsuka Distilled Water) adjusted at the pH level of 7.0 to bring the final concentration to 100 μg/ml. The resulting solutions were allowed to stand in an incubator at 55° C. (FC-610, Advantec) for 0, 10, 20, and 30 days, respectively, and reverse phase HPLC analysis was carried out (wavelength: 220 nm; mobile phase: acetonitrile (29.5%)/trifluoroacetic acid (0.1%); column: ODS-120T (Tosoh); column temperature: 25° C.) to examine the amount of remaining peptides 4, 12, 21, and 23.

bronchial smooth muscle = assay: Relaxant effect on bronchial smooth muscle (carbachol-constricted trachea, Magnus tank); parameters: species or system Hartley male guinea pigs; conditions: carbachol (3×10^−7 M)-induced constriction; peptide 12 cumulative 10^−9 M to 3×10^−6 M, peptides 21 and 23 single 3×10^−6 M; isoproterenol 10^−6 M = 100% relaxation
[5] = Stability of peptide 4 in distilled water, 40° C., 24 hours (reverse phase HPLC); assay type: physicochemical
Experimental: Peptide 4, a modified peptide, having a higher Arg content than wild-type VIP was weighed and fractionated to about 1 mg, the fractions were dissolved in distilled water adjusted to pH levels of 4.0, 5.0, 6.0, and 7.0 (Otsuka Distilled Water), and the final concentration was adjusted to 10 μg/ml. The resulting solutions were allowed to stand in an incubator at 40° C. (LH20-11M, Nagano Kagaku) for 24 hours, analysis was carried out via reverse phase HPLC (wavelength: 220 nm; mobile phase: 28% acetonitrile/0.1% trifluoroacetic acid; column: ODS-120T (Tosoh); column temperature: 25° C.), and the amount of remaining peptide 4 was examined.

gastric constriction = assay: Inhibitory effect on gastric peristaltic movement (carbachol-constricted isolated stomach, Magnus tank); parameters: species or system ICR mice; conditions: test peptides 10^−6 M, carbachol 3×10^−6 M, 15 minutes after drug administration, level of peptide 9 (control drug) = 100
[6] = Helical content from circular dichroism spectra; assay type: physicochemical; conditions: 20 mM Tris-HCl buffer (pH 7.4), calculation by Greenfield et al.
Experimental: VIP (peptide 1, SEQ ID NO: 2), peptide 7 (SEQ ID NO: 8) corresponding to 25 residues at the N-terminus of VIP, and peptide 8 (SEQ ID NO: 9), which is a peptide 7 derivative with its methionine-17 being oxidized, were dissolved in a 20 mM Tris-HCl buffer (pH 7.4), and the circular dichroism spectra thereof were examined using the Jasco J-720 (Jasco Corporation). According to analytical calculation of higher-order structure by Greenfield et al., the helical content of peptide 1 was about 50% (FIG. 2).

Substance | neuroprotective effect, viable cell counts (in words) (PC12 cells) | remaining at 240 h, 100 μg/ml (physchem [1]) | remaining at 480 h, 100 μg/ml (physchem [1]) | remaining at 720 h, 100 μg/ml (physchem [1]) | remaining at 72 h, 10 μg/ml (physchem [2]; pH 6) | remaining at 168 h, 100 μg/ml (physchem [3]; pH 6) | stability (in words) (physchem [3]; pH 6) | neurite formation (in words) (PC-12 cells) | remaining at 240 h, 100 μg/ml (physchem [4]) | remaining at 480 h, 100 μg/ml (physchem [4]) | remaining at 720 h, 100 μg/ml (physchem [4]) | stability (in words) (physchem [4]) | effect of relaxing the trachea (in words) (bronchial smooth muscle) | remaining at 72 h, 10 μg/ml (physchem [2]; pH 7) | remaining at 168 h, 100 μg/ml (physchem [3]; pH 7) | Level of constriction inhibition (gastric constriction) | also measured
H-HSDAVFTANYTRLRRQLAVRRYLAAILGRR-NH2 [Peptide 23] | significantly higher than that of peptide 1 | 98% | 89% | 73% | 100% | 100% | significantly improved compared to that of peptide 4 | significantly induced neurite formation | 62% | 42% | 30% | still remained 30 days later | apparent peptide-addition-dependent effect of relaxing the trachea |  |  |  | 
H-HSDAVFTDNYTRLRRQLAVRRYLAAILGRR-NH2 [Peptide 12] | significantly higher than that of peptide 1 | 84% | 86% | 73% | 94% | 100% | significantly improved compared to that of peptide 4 | significantly induced neurite formation | 49% | 34% | 18% | still remained 30 days later | apparent peptide-addition-dependent effect of relaxing the trachea | 100% | 90% |  | 
H-HSDAVFTDNYTRLRRQLAVRRYLNSILNGRR-NH2 [Peptide 4, reference compound] | significantly higher than that of peptide 1 | 28% | 13% |  |  | 53% |  | significantly induced neurite formation | 0% | 0% | 0% | completely disappeared after storage for 10 days |  | 67% | 35% |  | remaining at 24 h ([5]; buffer or solvent, pH 5.0, distilled water, 10 μg/ml, 40° C., read-out: Amount of remaining peptide): 90%; peptide degradation (in words) ([5]; distilled water pH 4.0 to 7.0, 40° C.): peptide degradation was significant at around the neutral pH region; remaining at 24 h, 10 μg/ml ([5]; pH 4.0, distilled water, 10 μg/ml, 40° C., read-out: Amount of remaining peptide): 91%; remaining at 24 h, 10 μg/ml ([5]; pH 6.0, distilled water, 10 μg/ml, 40° C., read-out: Amount of remaining peptide): 93%; remaining at 24 h, 10 μg/ml ([5]; pH 7.0, distilled water, 10 μg/ml, 40° C., read-out: Amount of remaining peptide): 84%; stability (in words) (physchem [1]): disappeared 30 days later
H-HSDAVFTENYTRLRRQLAVRRYLAAILGRR-NH2 [Peptide 21] | significantly higher than that of peptide 1 | 100% | 76% | 59% | 93% | 100% | significantly improved compared to that of peptide 4 | significantly induced neurite formation | 29% | 45% | 10% | still remained 30 days later | apparent peptide-addition-dependent effect of relaxing the trachea | 100% | 87% |  | 
His-Ser-Asp-Ala-Val-Phe-Thr-Asp-Asn-Tyr-Thr-Arg-Leu-Arg-Arg-Gln-Leu-Ala-Val-Arg-Arg-Tyr-Leu-NH2 (HSDAVFTDNYTRLRRQLAVRRYL-NH2) [Peptide 10] |  |  |  |  |  |  |  |  |  |  |  |  |  |  |  | 227 | 
His-Ser-Asp-Ala-Val-Phe-Thr-Asp-Asn-Tyr-Thr-Arg-Leu-Arg-Lys-Gln-Leu-Ala-Val-Lys-Lys-Tyr-Leu-NH2 (HSDAVFTDNYTRLRKQLAVKKYL-NH2) [Peptide 9, reference compound] |  |  |  |  |  |  |  |  |  |  |  |  |  |  |  | 100 | 
His-Ser-Asp-Ala-Val-Phe-Thr-Asp-Asn-Tyr-Thr-Arg-Leu-Arg-Lys-Gln-Met-Ala-Val-Lys-Lys-Tyr-Leu-Asn-Ser-Ile-Leu-Asn-NH2 [Peptide 1, reference compound] | significant neuroprotective effects |  |  |  |  |  |  |  |  |  |  |  |  |  |  |  | helical content [6]: about 50%
His-Ser-Asp-Ala-Val-Phe-Thr-Asp-Asn-Tyr-Thr-Arg-Leu-Arg-Lys-Gln-Met-Ala-Val-Lys-Lys-Tyr-Leu-Asn-Ser-NH2 (HSDAVFTDNYTRLRKQMAVKKYLNS-NH2) [Peptide 7, corresponding to 25 residues at the N-terminus of VIP] |  |  |  |  |  |  |  |  |  |  |  |  |  |  |  |  | helical content [6]: would retain a good deal of such higher-order structure
His-Ser-Asp-Gly-Ile-Phe-Thr-Asp-Ser-Tyr-Ser-Arg-Tyr-Arg-Arg-Gln-Leu-Ala-Val-Arg-Arg-Tyr-Leu-NH2 (HSDGIFTDSYSRYRRQLAVRRYL-NH2) [Peptide 33] |  |  |  |  |  |  |  |  |  |  |  |  |  |  |  | 160 | 
